Results as given in the NIST ThermoML archive (doi:10.1016/j.tca.2013.03.017).
± gives the expanded uncertainty stated by the source.

How the values were obtained:
[1] = molar heat capacity at constant pressure; xn = mol fraction of the nth substance listed; conditions: 101 kPa, Liquid, Small sample (50 mg) DSC
[2] = xn = mol fraction of the nth substance listed; conditions: 101 kPa, Liquid, Hot wire method

## O=S1(=O)CCCC1 [sulfolane] + O
[1]; 303.15 K, x1 = 0.1
  molar heat capacity at constant pressure: 87.62 ± 1.4 J/K/mol
[1]; 303.15 K, x1 = 0.198
  molar heat capacity at constant pressure: 99.49 ± 1.5 J/K/mol
[1]; 303.15 K, x1 = 0.299
  molar heat capacity at constant pressure: 112 ± 1.7 J/K/mol
[1]; 303.15 K, x1 = 0.397
  molar heat capacity at constant pressure: 123.4 ± 1.9 J/K/mol
[1]; 303.15 K, x1 = 0.493
  molar heat capacity at constant pressure: 133.8 ± 2.1 J/K/mol
[1]; 303.15 K, x1 = 0.6
  molar heat capacity at constant pressure: 144.9 ± 2.2 J/K/mol
[1]; 303.15 K, x1 = 0.699
  molar heat capacity at constant pressure: 154.4 ± 2.4 J/K/mol
[1]; 303.15 K, x1 = 0.8
  molar heat capacity at constant pressure: 163.7 ± 2.5 J/K/mol
[1]; 303.15 K, x1 = 0.899
  molar heat capacity at constant pressure: 172.4 ± 2.7 J/K/mol
[1]; 303.15 K, x1 = 1
  molar heat capacity at constant pressure: 181.5 ± 2.8 J/K/mol
[1]; 313.15 K, x1 = 0.1
  molar heat capacity at constant pressure: 88.47 ± 1.4 J/K/mol
[1]; 313.15 K, x1 = 0.198
  molar heat capacity at constant pressure: 100.9 ± 1.6 J/K/mol
[1]; 313.15 K, x1 = 0.299
  molar heat capacity at constant pressure: 113.9 ± 1.8 J/K/mol
[1]; 313.15 K, x1 = 0.397
  molar heat capacity at constant pressure: 125.6 ± 1.9 J/K/mol
[1]; 313.15 K, x1 = 0.493
  molar heat capacity at constant pressure: 136.4 ± 2.1 J/K/mol
[1]; 313.15 K, x1 = 0.6
  molar heat capacity at constant pressure: 148 ± 2.3 J/K/mol
[1]; 313.15 K, x1 = 0.699
  molar heat capacity at constant pressure: 157.9 ± 2.4 J/K/mol
[1]; 313.15 K, x1 = 0.8
  molar heat capacity at constant pressure: 167.2 ± 2.6 J/K/mol
[1]; 313.15 K, x1 = 0.899
  molar heat capacity at constant pressure: 176 ± 2.7 J/K/mol
[1]; 313.15 K, x1 = 1
  molar heat capacity at constant pressure: 185.1 ± 2.9 J/K/mol
[1]; 323.15 K, x1 = 0.1
  molar heat capacity at constant pressure: 89.1 ± 1.4 J/K/mol
[1]; 323.15 K, x1 = 0.198
  molar heat capacity at constant pressure: 102.2 ± 1.6 J/K/mol
[1]; 323.15 K, x1 = 0.299
  molar heat capacity at constant pressure: 115.3 ± 1.8 J/K/mol
[1]; 323.15 K, x1 = 0.397
  molar heat capacity at constant pressure: 127.5 ± 2 J/K/mol
[1]; 323.15 K, x1 = 0.493
  molar heat capacity at constant pressure: 138.8 ± 2.2 J/K/mol
[1]; 323.15 K, x1 = 0.6
  molar heat capacity at constant pressure: 150.6 ± 2.3 J/K/mol
[1]; 323.15 K, x1 = 0.699
  molar heat capacity at constant pressure: 160.9 ± 2.5 J/K/mol
[1]; 323.15 K, x1 = 0.8
  molar heat capacity at constant pressure: 170.9 ± 2.6 J/K/mol
[1]; 323.15 K, x1 = 0.899
  molar heat capacity at constant pressure: 179.7 ± 2.8 J/K/mol
[1]; 323.15 K, x1 = 1
  molar heat capacity at constant pressure: 188.7 ± 2.9 J/K/mol
[1]; 333.15 K, x1 = 0.1
  molar heat capacity at constant pressure: 89.75 ± 1.4 J/K/mol
[1]; 333.15 K, x1 = 0.198
  molar heat capacity at constant pressure: 103.6 ± 1.6 J/K/mol
[1]; 333.15 K, x1 = 0.299
  molar heat capacity at constant pressure: 117.3 ± 1.8 J/K/mol
[1]; 333.15 K, x1 = 0.397
  molar heat capacity at constant pressure: 129.9 ± 2 J/K/mol
[1]; 333.15 K, x1 = 0.493
  molar heat capacity at constant pressure: 141.5 ± 2.2 J/K/mol
[1]; 333.15 K, x1 = 0.6
  molar heat capacity at constant pressure: 153.8 ± 2.4 J/K/mol
[1]; 333.15 K, x1 = 0.699
  molar heat capacity at constant pressure: 164.5 ± 2.5 J/K/mol
[1]; 333.15 K, x1 = 0.8
  molar heat capacity at constant pressure: 174.3 ± 2.7 J/K/mol
[1]; 333.15 K, x1 = 0.899
  molar heat capacity at constant pressure: 183.3 ± 2.8 J/K/mol
[1]; 333.15 K, x1 = 1
  molar heat capacity at constant pressure: 192.3 ± 3 J/K/mol
[1]; 343.15 K, x1 = 0.1
  molar heat capacity at constant pressure: 90.42 ± 1.4 J/K/mol
[1]; 343.15 K, x1 = 0.198
  molar heat capacity at constant pressure: 104.5 ± 1.6 J/K/mol
[1]; 343.15 K, x1 = 0.299
  molar heat capacity at constant pressure: 118.5 ± 1.8 J/K/mol
[1]; 343.15 K, x1 = 0.397
  molar heat capacity at constant pressure: 131.7 ± 2 J/K/mol
[1]; 343.15 K, x1 = 0.493
  molar heat capacity at constant pressure: 143.5 ± 2.2 J/K/mol
[1]; 343.15 K, x1 = 0.6
  molar heat capacity at constant pressure: 155.8 ± 2.4 J/K/mol
[1]; 343.15 K, x1 = 0.699
  molar heat capacity at constant pressure: 166.4 ± 2.6 J/K/mol
[1]; 343.15 K, x1 = 0.8
  molar heat capacity at constant pressure: 176.4 ± 2.7 J/K/mol
[1]; 343.15 K, x1 = 0.899
  molar heat capacity at constant pressure: 185.6 ± 2.9 J/K/mol
[1]; 343.15 K, x1 = 1
  molar heat capacity at constant pressure: 194.3 ± 3 J/K/mol
[1]; 353.15 K, x1 = 0.1
  molar heat capacity at constant pressure: 91.42 ± 1.4 J/K/mol
[1]; 353.15 K, x1 = 0.198
  molar heat capacity at constant pressure: 106.2 ± 1.6 J/K/mol
[1]; 353.15 K, x1 = 0.299
  molar heat capacity at constant pressure: 120.8 ± 1.9 J/K/mol
[1]; 353.15 K, x1 = 0.397
  molar heat capacity at constant pressure: 134 ± 2.1 J/K/mol
[1]; 353.15 K, x1 = 0.493
  molar heat capacity at constant pressure: 146.1 ± 2.3 J/K/mol
[1]; 353.15 K, x1 = 0.6
  molar heat capacity at constant pressure: 158.8 ± 2.5 J/K/mol
[1]; 353.15 K, x1 = 0.699
  molar heat capacity at constant pressure: 169.6 ± 2.6 J/K/mol
[1]; 353.15 K, x1 = 0.8
  molar heat capacity at constant pressure: 179.9 ± 2.8 J/K/mol
[1]; 353.15 K, x1 = 0.899
  molar heat capacity at constant pressure: 189.2 ± 2.9 J/K/mol
[1]; 353.15 K, x1 = 1
  molar heat capacity at constant pressure: 197.8 ± 3.1 J/K/mol
[2]; 303.15 K, x1 = 0.1
  thermal conductivity: 0.3861 ± 0.0018 W/m/K
[2]; 303.15 K, x1 = 0.198
  thermal conductivity: 0.296 ± 0.0014 W/m/K
[2]; 303.15 K, x1 = 0.299
  thermal conductivity: 0.2563 ± 0.0012 W/m/K
[2]; 303.15 K, x1 = 0.397
  thermal conductivity: 0.2358 ± 0.0011 W/m/K
[2]; 303.15 K, x1 = 0.493
  thermal conductivity: 0.2206 ± 0.001 W/m/K
[2]; 303.15 K, x1 = 0.6
  thermal conductivity: 0.2028 ± 0.001 W/m/K
[2]; 303.15 K, x1 = 0.699
  thermal conductivity: 0.1911 ± 0.0009 W/m/K
[2]; 303.15 K, x1 = 0.8
  thermal conductivity: 0.1809 ± 0.0009 W/m/K
[2]; 303.15 K, x1 = 0.899
  thermal conductivity: 0.1739 ± 0.0009 W/m/K
[2]; 303.15 K, x1 = 1
  thermal conductivity: 0.1678 ± 0.0008 W/m/K
[2]; 313.15 K, x1 = 0.1
  thermal conductivity: 0.3969 ± 0.0027 W/m/K
[2]; 313.15 K, x1 = 0.198
  thermal conductivity: 0.2979 ± 0.002 W/m/K
[2]; 313.15 K, x1 = 0.299
  thermal conductivity: 0.2583 ± 0.0018 W/m/K
[2]; 313.15 K, x1 = 0.397
  thermal conductivity: 0.2334 ± 0.0017 W/m/K
[2]; 313.15 K, x1 = 0.493
  thermal conductivity: 0.22 ± 0.0015 W/m/K
[2]; 313.15 K, x1 = 0.6
  thermal conductivity: 0.2012 ± 0.0015 W/m/K
[2]; 313.15 K, x1 = 0.699
  thermal conductivity: 0.1896 ± 0.0013 W/m/K
[2]; 313.15 K, x1 = 0.8
  thermal conductivity: 0.1797 ± 0.0013 W/m/K
[2]; 313.15 K, x1 = 0.899
  thermal conductivity: 0.1719 ± 0.0013 W/m/K
[2]; 313.15 K, x1 = 1
  thermal conductivity: 0.1656 ± 0.0012 W/m/K
[2]; 323.15 K, x1 = 0.1
  thermal conductivity: 0.4026 ± 0.0026 W/m/K
[2]; 323.15 K, x1 = 0.198
  thermal conductivity: 0.2965 ± 0.0019 W/m/K
[2]; 323.15 K, x1 = 0.299
  thermal conductivity: 0.2558 ± 0.0016 W/m/K
[2]; 323.15 K, x1 = 0.397
  thermal conductivity: 0.2316 ± 0.0016 W/m/K
[2]; 323.15 K, x1 = 0.493
  thermal conductivity: 0.2167 ± 0.0014 W/m/K
[2]; 323.15 K, x1 = 0.6
  thermal conductivity: 0.1993 ± 0.0013 W/m/K
[2]; 323.15 K, x1 = 0.699
  thermal conductivity: 0.1883 ± 0.0013 W/m/K
[2]; 323.15 K, x1 = 0.8
  thermal conductivity: 0.1788 ± 0.0011 W/m/K
[2]; 323.15 K, x1 = 0.899
  thermal conductivity: 0.1715 ± 0.0011 W/m/K
[2]; 323.15 K, x1 = 1
  thermal conductivity: 0.1634 ± 0.0011 W/m/K
[2]; 333.15 K, x1 = 0.1
  thermal conductivity: 0.4084 ± 0.0026 W/m/K
[2]; 333.15 K, x1 = 0.198
  thermal conductivity: 0.295 ± 0.0019 W/m/K
[2]; 333.15 K, x1 = 0.299
  thermal conductivity: 0.2507 ± 0.0016 W/m/K
[2]; 333.15 K, x1 = 0.397
  thermal conductivity: 0.2304 ± 0.0014 W/m/K
[2]; 333.15 K, x1 = 0.493
  thermal conductivity: 0.2133 ± 0.0014 W/m/K
[2]; 333.15 K, x1 = 0.6
  thermal conductivity: 0.1986 ± 0.0013 W/m/K
[2]; 333.15 K, x1 = 0.699
  thermal conductivity: 0.1876 ± 0.0011 W/m/K
[2]; 333.15 K, x1 = 0.8
  thermal conductivity: 0.1779 ± 0.0011 W/m/K
[2]; 333.15 K, x1 = 0.899
  thermal conductivity: 0.1699 ± 0.0011 W/m/K
[2]; 333.15 K, x1 = 1
  thermal conductivity: 0.1616 ± 0.0011 W/m/K
[2]; 343.15 K, x1 = 0.1
  thermal conductivity: 0.4085 ± 0.0025 W/m/K
[2]; 343.15 K, x1 = 0.198
  thermal conductivity: 0.2893 ± 0.0017 W/m/K
[2]; 343.15 K, x1 = 0.299
  thermal conductivity: 0.2417 ± 0.0014 W/m/K
[2]; 343.15 K, x1 = 0.397
  thermal conductivity: 0.2229 ± 0.0014 W/m/K
[2]; 343.15 K, x1 = 0.493
  thermal conductivity: 0.2092 ± 0.0013 W/m/K
[2]; 343.15 K, x1 = 0.6
  thermal conductivity: 0.1966 ± 0.0012 W/m/K
[2]; 343.15 K, x1 = 0.699
  thermal conductivity: 0.1852 ± 0.0011 W/m/K
[2]; 343.15 K, x1 = 0.8
  thermal conductivity: 0.1765 ± 0.0011 W/m/K
[2]; 343.15 K, x1 = 0.899
  thermal conductivity: 0.1676 ± 0.0011 W/m/K
[2]; 343.15 K, x1 = 1
  thermal conductivity: 0.1593 ± 0.0011 W/m/K
[2]; 353.15 K, x1 = 0.1
  thermal conductivity: 0.4058 ± 0.0023 W/m/K
[2]; 353.15 K, x1 = 0.198
  thermal conductivity: 0.287 ± 0.0017 W/m/K
[2]; 353.15 K, x1 = 0.299
  thermal conductivity: 0.2399 ± 0.0014 W/m/K
[2]; 353.15 K, x1 = 0.397
  thermal conductivity: 0.2185 ± 0.0012 W/m/K
[2]; 353.15 K, x1 = 0.493
  thermal conductivity: 0.204 ± 0.0012 W/m/K
[2]; 353.15 K, x1 = 0.6
  thermal conductivity: 0.1921 ± 0.0012 W/m/K
[2]; 353.15 K, x1 = 0.699
  thermal conductivity: 0.1817 ± 0.0011 W/m/K
[2]; 353.15 K, x1 = 0.8
  thermal conductivity: 0.173 ± 0.001 W/m/K
[2]; 353.15 K, x1 = 0.899
  thermal conductivity: 0.1657 ± 0.001 W/m/K
[2]; 353.15 K, x1 = 1
  thermal conductivity: 0.1581 ± 0.0009 W/m/K
